Experimental data reported in patent US20210051963A1, “METHODS AND COMPOSITIONS TO IMPROVE PLANT HEALTH AND/OR PLANT PERFORMANCE” (PLANTRESPONSE BIOTECH, S.L., priority 2017, published 2021).

What was measured:
[1] = test system: Sclerotinia sclerotiorum strain CH109; test: White mold disease index in tomato plants treated with PRBT, 6-HP-2CA or 6-OXO-2CA; assay type: in vivo; conditions: for disease index vs untreated inoculated tomato plants: PRBT 0.054 g L-1, 6-HP-2CA 0.1 g/l, 6-OXO-2CA 0.1 g/l, 10 and 14 dpi; for Disease Control (%) / Disease index (10 dpi) / Disease index (15 dpi): inoculated tomato var. Money Maker, PRBT 0.054 g/L, 6-HP-2CA or 6-OXO-2CA 0.1 g/L, 25 ml/plant; for Disease index (10 dpi) / Disease index (15 dpi): score 0-5
Method: Tomato plants var. Money Maker were sown on Dec. 13, 2016, distributed in random blocks of 9 plants with 4 replicates (36 plants per treatment) and grown in a standard greenhouse. Treated plants were sprayed on Mar. 6, 2017 with 25 ml/plant at 3 ml/1 (0.054 g L^−1) of PRBT (with surfactant 2:1, v/w, antifoam and biocide) or with 25 ml (0.1 g L^−1) of 6-hydroxypiperidine-2-carboxylic acid (6-HP-2CA), or with 25 ml (0.1 g 1-1) of 6-oxopiperidine-2-carboxylic acid (6-OXO-2CA).
Two days later plants were inoculated with 25 ml/plant of a foliar spray of blended Sclerotinia sclerotiorum strain CH109 mycelium that had been grown to optical density at 600 nm of 0.8. Plants were kept at 100% relative humidity for seven days and then humidity was lowered to 80% for the rest of the experiment. Plants were then evaluated at 10 and 14 days post inoculation (dpi) according to a disease severity index score were 0 corresponds to no symptoms and 5 to a dead plant. No statistically significant differences among treatments with the same letter (LSD method, p=0.05)

[2] = test system: Sclerotinia sclerotiorum strain CH109; test: White mold disease index in pepper plants treated with PRBT or 6-HP-2CA; assay type: in vivo; conditions: for Disease index 4 dpi / Disease index 6 dpi: inoculated pepper var. Murano, 10 ml/plant, score 0-4
Method: Pepper plants var. Murano were sown on Oct. 20, 2016 and distributed in random blocks of 3 plants with 4 replicates (12 plants per treatment) and grown in a standard greenhouse. PRBT treated plants were sprayed on Nov. 23, 2016 with (0.038 g L^−1) PRBT at 10 ml/plant or with (0.01 g L^−1) 6-hydroxypiperidine-2-carboxylic acid (6-HP-2CA) or with (0.1 g L^−1) 6-HP-2CA or with (0.01 g L^−1) 6-HP-2CA formulated with an adjuvant or with (0.1 g L^−1) 6-HP-2CA (0.01 g L^−1) formulated with an adjuvant at 10 ml/plant. Two days later plants were inoculated with 10 ml/plant of a foliar spray of blended Sclerotinia sclerotiorum strain CH109 mycelium that had been grown to optical density at 600 nm of 1.7. Plants were kept at 100% relative humidity for four days and then humidity was lowered to 80% for the rest of the experiment. Plants were then evaluated 4, and 6 days post inoculation (dpi) according to a disease severity index score were 0 corresponds to no symptoms and 4 to a dead plant. No statistically significant differences among treatments with the same letter (LSD method, p=0.05)

In the case of `O=C1CCC[C@H](C(=O)O)N1` (stereo in doubt) [6-OXO-2CA, 6-oxopiperidine-2-carboxylic acid], the “disease index vs untreated inoculated tomato plants” value [1] is reported as “significantly lower”, the “Disease Control (%)” value [1] is reported as 10 c % and the “Disease index (10 dpi)” value [1] is reported as 2.3 b. The “Disease index (15 dpi)” value [1] was 2.3 b.
With `O=C(O)C1CCCC(O)N1` (stereo not shown) [6-HP-2CA, 6-hydroxypiperidine-2-carboxylic acid] the “disease index vs untreated inoculated tomato plants” value [1] was “significantly lower”, the “Disease Control (%)” value [1] was 11 c % and the “Disease index (10 dpi)” value [1] was 2.2 b. For the same compound, the “Disease index (15 dpi)” value [1] was 2.2 b, the “disease index vs untreated inoculated pepper plants” value ([2]; high (0.1 g/L) concentration) was “significantly lower” and the “Disease index 4 dpi” value ([2]; 0.01 g/L) was 0.9 b. For the same compound, the “Disease index 6 dpi” value ([2]; 0.01 g/L) was 2.3 b, the “Disease index 4 dpi” value ([2]; 0.1 g/L) was 0.2 a and the “Disease index 6 dpi” value ([2]; 0.1 g/L) was 0.5 a.
